Results on seven compounds are retold here after patent publication US20100179220A1, “METHOD FOR THE TREATMENT OF TINNITUS” (Merck Patent GmbH, priority 2006, published 2010).

SMILES strings stand for the structures. “And” between values parts separate entries of the source, which are not always exact repeats. Equal values may be shown once.

One data set deals with patients with tinnitus. The note with it: cited from earlier work; for improvement of tinnitus: literature studies, only baclofen and caroverine double blind placebo-controlled.
Data set [1] has as its system patients with sensorineural tinnitus. Briefly: randomized double-blind placebo-controlled clinical trial of acamprosate in tinnitus. Also on record: key to tinnitus scale, Mean / tinnitus scale, Median / tinnitus scale, Minimum / tinnitus scale, Maximum: tinnitus disturbance score, 0 to 10 (0.5 steps allowed). The data set is classed as in vivo, human. Here is the method: We selected 50 patients with tinnitus seen at OTOSUL, Otorrinolaringologia Sul-fluminense, Hospital São Camilo, Volta Redonda, R J, between October 2003 and October 2004. The inclusion criteria were tinnitus of sensorineural etiology, excluding the cases of external and middle ear disease and concomitant temporomandibular joint disorders. Pure tone audiometry, vocal audiometry and immittanciometry were performed in all patients, and we excluded those with conductive and mixed hearing loss and those with tympanogram curve types A-r, A-d, C and B. The audiometer used was AMPLAID A 177 PLUS, and the Immittanciometer was AMPLAID 750. We considered the thresholds up to 25 dB (normal hearing), 26 to 40 dB (mild loss), 41 to 70 dB (moderate loss), 71 to 90 dB (severe loss) and over 90 dB (profound loss).
The patients were classified according to the following parameters:
age, gender, continuous or intermittent tinnitus, uni or bilateral tinnitus, tinnitus characteristics (type of associated noise), time of tinnitus, associated symptoms (hypo and hyper loss, dizziness, ear fullness), probable tinnitus etiology, previous use of drugs to treat tinnitus, and baseline tinnitus score, given by the patient, ranging from 0 to 10, according to how much it disturbed the patient
Patients were asked to score tinnitus from 1 to 10 according to how much they were disturbed by it. We allowed 0.5 scores as well.
Patients were randomly divided into 2 groups of 25 patients: one group received acamprosate 333 mg, TID, and the other received placebo, TID, both groups for 90 days. All details of the study were clarified to the patients by the assistant physician and they all signed the informed consent term. It was a double-blind study approved by the Medical Ethical Committee, Hospital São Camilo.
Patients were analyzed at days 30, 60 and 90 after use of the drug and at each visit, the patient scored the tinnitus status, as well as reported side effects.
The statistical analysis was performed based on the following methods:
t Student test for independent samples or the Mann-Whitney test to compare quantitative data between the two groups (acamprosate and placebo) chi-square test or Fisher exact test to compare qualitative data, Friedman Variance Analysis to analyze the progression of tinnitus scale (quantitative data) throughout time (four assessments within 3 months) with the treatment with acamprosate and placebo.
The test of multiple comparisons based on the statistics of Friedman was applied to identify which moments were different. The test of multiple comparisons is a test complementary to Variance Analysis.
The criterion for determination of significance was adopted as 5%, that is, when p value of the statistical test was smaller or equal to 0.05, meaning there was statistical significance. The statistical analysis was processed by the statistical software SAS System.

The test system of the next data set is GABA reuptake sites. The note with it: rats; cited from earlier work.
Where [2] appears, read: acamprosate 333 mg TID, 90 days, n=23.

In the case of `O=C1CN=C(c2ccccc2Cl)c2cc([N+](=O)[O-])ccc2N1` [clonazepam], the improvement of tinnitus in the data set with patients with tinnitus is reported as 32%.

Consider `COc1ccc(CN2CCNCC2)c(OC)c1OC` [trimetazidine], for which the improvement of tinnitus in the data set with patients with tinnitus was 89%.

For the compound `c1cnc(N2CCN(Cc3ccc4c(c3)OCO4)CC2)nc1` [piribedil], in the data set on patients with tinnitus, the improvement of tinnitus is recorded as 92.6%.

With `CCN(CC)CCn1c(=O)c(Cc2ccc(OC)cc2)nc2ccccc21` [caroverine], the improvement of tinnitus with patients with tinnitus was 63.3%.

On to `CC(=O)NCCCS(=O)(=O)O` [acamprosate, calcium acetyl-homotaurinate], for which, in data set [1] (Baseline, n=23), the “tinnitus scale, Maximum” value is reported as 10; the “tinnitus scale, Mean” value was 6.74; the “tinnitus scale, Median” value was determined as 7; the “tinnitus scale, Minimum” value is recorded as 3. For the same compound, in data set [1] (Score 30 d, 333 mg TID, n=23), the “tinnitus scale, Maximum” value amounted to 10; the “tinnitus scale, Mean” value is on record as 5.39; the “tinnitus scale, Median” value amounted to 5; the “tinnitus scale, Minimum” value is listed as 2. Besides, in data set [1] (Score 60 d, 333 mg TID, n=23), the “tinnitus scale, Maximum” value worked out at 9; the “tinnitus scale, Mean” value is recorded as 3.98; the “tinnitus scale, Median” value was 4; the “tinnitus scale, Minimum” value is listed as 0. In data set [1] (Score 90 d, 333 mg TID, n=23), the “tinnitus scale, Maximum” value came to 10; the “tinnitus scale, Mean” value came out at 2.87; the “tinnitus scale, Median” value is on record as 2; the “tinnitus scale, Minimum” value was determined as 0. In data set [1] (acamprosate 333 mg TID, 90 days), the worsening in score entry is “no worsening in score has been observed”. Further, the “severity of observed side effects” value in data set [1] (acamprosate 333 mg TID, 90 days, epigastralgia, choking) was “mild”. In data set [1] (setting [2]), the “patients who did not report improvement” value worked out at 13.04%, the “patients who reported improvement below 50%” value is listed as 39.13% and the “subjects who reported that tinnitus had disappeared” value is on record as 13.04%. The “incidence of side effects” value in data set [1] (acamprosate 333 mg TID, 90 days, placebo 20%, p=0.35) was determined as 12%. Moreover, the “proportion of improvement at 90 days equal or greater than 50%” value in data set [1] (acamprosate 333 mg TID, 90 days, subjective tinnitus score, placebo 11.1%, p=0.012) is 47.8% and 47.83%. Moreover, in data set [1] (acamprosate group of 25, placebo 7), the “patients who interrupted treatment before the end of assessment” value was 2. In addition, the “patients who suspended treatment owing to side effects” value in data set [1] (acamprosate group, 50% of those who interrupted) is listed as “One”. The “variation of tinnitus scale as a result of time (Friedman Variance Analysis)” value in data set [1] (baseline, 30, 60, 90 days, 333 mg TID, p<0.0001) was “significant decrease”. Moreover, the “effect on GABA reuptake sites and GABA transmission” value in the data set with GABA reuptake sites is “increases the number of reuptake sites of GABA”.

Take `NC(=O)N1c2ccccc2C=Cc2ccccc21` [carbamazepine]: the “improvement, % of the cases of tinnitus” value in the data set with patients with tinnitus (progressively increasing doses of 50 to 600 mg a day, defined by positive lidocaine test) is 50%.

Consider `NCC(CC(=O)O)c1ccc(Cl)cc1` (stereo not drawn) [baclofen], for which the improvement of tinnitus entry in the data set with patients with tinnitus is reported as “about 9.7%”.
